Laboratory results taken from PMC5788402, “Impact of Target Warhead and Linkage Vector on Inducing Protein Degradation: Comparison of Bromodomain and Extra-Terminal (BET) Degraders Derived from Triazolodiazepine (JQ1) and Tetrahydroquinoline (I-BET726) BET Inhibitor Scaffolds” (Journal of Medicinal Chemistry, 2017).

Columns and labels:
[1] = biological target: T1, Brd4 (Homo sapiens, UniProt O60885); assay: Brd4 depletion in HL60 (immunoblot); assay type: cell-based; conditions: 50 nM, 4 h, HL60
T1 construct: endogenous in cells; host or cells: MV4;11; HL60

[2] = biological target: Brd4 tandem bromodomain; conditions: cited from earlier work
[3] = system: MV4;11 cells; assay: Cell viability assay (CellTiter-Glo), MV4;11; assay type: cell-based; conditions: Homo sapiens, antiproliferative, 48 h treatment, error = quality of curve fitting, read-out: pEC50 MV4;11 (converted)
[4] = biological target: VCB / Brd4^BD2 ternary complex (Homo sapiens, UniProt O60885+P40337); assay: ITC ternary titration, VCB into Brd4^BD2–PROTAC complex; assay type: binding; conditions: for α: cooperativity, ratio between binary and ternary Kd; for α / ΔpKd ± uncertainty: Brd4^BD2; for cooperativity (α) Brd4–BD2: ternary complex formation with VCB and Brd4^BD2, as tabulated in Table 2; for ΔpKd ± uncertainty: ternary vs binary; for stoichiometry N / ΔG / ΔH / –TΔS: ternary, VCB in syringe, Brd4^BD2–PROTAC in cell
[5] = biological target: VHL-EloC-EloB protein (VCB) (Homo sapiens, UniProt P40337); assay: ITC binary titration, VCB into PROTAC; assay type: binding; conditions: VCB in syringe, PROTAC in cell
[6] = biological target: Brd4^BD2 (Homo sapiens, UniProt O60885); assay: ITC binary titration, Brd4^BD2 into PROTAC; assay type: binding; conditions: Brd4^BD2 in syringe, PROTAC in cell
[7] = biological target: T1, Brd4; assay: Brd4 depletion in MV4;11 (immunoblot); assay type: cell-based; conditions: 50 nM, 4 h
[8] = system: cMyc; assay: cMyc depletion in MV4;11 (immunoblot); assay type: cell-based; conditions: 50 nM, 4 h

Compound | Brd4 depletion (%) HL60 [1] | Kd [2] | EC50 [3] | α [4] | cooperativity (α) Brd4–BD2 [4] | ΔpKd ± uncertainty [4] | stoichiometry N [4] | ΔG [4] | ΔH [4] | –TΔS [4] | stoichiometry N [5] | ΔG [5] | ΔH [5] | –TΔS [5] | stoichiometry N [6] | ΔG [6] | ΔH [6] | –TΔS [6] | Brd4 depletion (%) MV4;11 [7] | cMyc depletion (%) MV4;11 [8]
CC(=O)N1c2ccc(-c3ccc(C(=O)O)cc3)cc2[C@H](Nc2ccc(Cl)cc2)C[C@@H]1C [compound 4] | –157% | 4 nM | – | – | – | – | – | – | – | – | – | – | – | – | – | – | – | – | – | –
Cc1ncsc1-c1ccc(CNC(=O)[C@@H]2C[C@@H](O)CN2C(=O)[C@@H](NC(=O)COCCOCCOCCOCCNC(=O)C[C@@H]2N=C(c3ccc(Cl)cc3)c3c(sc(C)c3C)-n3c(C)nnc32)C(C)(C)C)cc1 [compound 7] | – | – | 123 nM | 4.7 | 4.7 | 0.66 ± 0.10 | 0.76 ± 0.07 | –10.7 ± 0.05 kcal·mol^–1 | –10.6 ± 1.3 kcal·mol^–1 | –0.07 ± 1.3 kcal·mol^–1 | 0.76 ± 0.03 | –9.75 ± 0.13 kcal·mol^–1 | –8.79 ± 0.42 kcal·mol^–1 | –0.96 ± 0.29 kcal·mol^–1 | 0.79 ± 0.03 | –10.3 ± 0.04 kcal·mol^–1 | –10.6 ± 0.5 kcal·mol^–1 | 0.31 ± 0.53 kcal·mol^–1 | – | –
CC(=O)N1c2ccc(-c3ccc(C(=O)NCCOCCOCC(=O)N[C@H](C(=O)N4C[C@H](O)C[C@H]4C(=O)NCc4ccc(-c5scnc5C)cc4)C(C)(C)C)cc3)cc2[C@H](Nc2ccc(Cl)cc2)C[C@@H]1C [compound 8, (2S,4R)-1-((S)-1-(4-((2S,4R)-1-Acetyl-4-((4-chlorophenyl)amino)-2-methyl-1,2,3,4-tetrahydroquinolin-6-yl)phenyl)-12-(tert-butyl)-1,10-dioxo-5,8-dioxa-2,11-diazatridecan-13-oyl)-4-hydroxy-N-(4-(4-methylthiazol-5-yl)benzyl)pyrrolidine-2-carboxamide] | –156% | – | – | 0.2 | 0.15 | –0.83 ± 0.10 | 1.07 ± 0.01 | –8.33 ± 0.05 kcal·mol^–1 | –7.02 ± 0.11 kcal·mol^–1 | –1.31 ± 0.12 kcal·mol^–1 | 1.12 ± 0.01 | –9.46 ± 0.13 kcal·mol^–1 | –4.07 ± 0.07 kcal·mol^–1 | –5.39 ± 0.14 kcal·mol^–1 | 0.804 ± 0.003 | –11.7 ± 0.4 kcal·mol^–1 | –10.0 ± 0.1 kcal·mol^–1 | –1.71 ± 0.43 kcal·mol^–1 | 11/11% | 11/11%
